Reference: article PMC8286840, “Identifying SARS-CoV-2 antiviral compounds by screening for small molecule inhibitors of Nsp3 papain-like protease” (Biochemical Journal, 2021)
Structures can show the parent of a compound that is named as a salt. Where two headings read alike, the source gives them in different places.

Legend:
[1] = target: T1, SARS-CoV-2 PLpro (nsp3 1564–1878) (Severe acute respiratory syndrome coronavirus 2, UniProt P0DTD1); assay: biochemical; parameters: FRET-quenched peptide (Pro3) cleavage by PLpro, 10 min pre-incubation, slope over 20 min, normalised to no-compound control; conditions: read-out: % of control remaining
[2] = target: T1, SARS-CoV-2 PLpro (nsp3 1564–1878); assay: biochemical; parameters: FRET-quenched peptide (Pro3) cleavage by PLpro, 10 min pre-incubation, slope over 20 min, normalised to no-compound control; conditions: read-out: % of control remaining; remark: listed apart in the source

Cc1nc(NC(=O)N2CCC[C@H]2C(N)=O)sc1-c1ccnc(C(C)(C)C(F)(F)F)c1 [BYL719]
remaining activity at 1.25 µM ([1]; Well no.=5163, low concentration screen): 102%
remaining activity at 3.75 µM ([2]; Well no.=5163, high concentration screen): 104%

CC(=O)O[C@H]1C(=O)[C@@]2(C)[C@H]([C@H](OC(=O)c3ccccc3)[C@]3(O)C[C@H](O)C(C)=C1C3(C)C)[C@]1(OC(C)=O)CO[C@@H]1C[C@@H]2O [Baccatin III]
remaining activity at 1.25 µM ([1]; Well no.=3099, low concentration screen): 97.9%
remaining activity at 3.75 µM ([2]; Well no.=3099, high concentration screen): 99.5%

O=c1cc(-c2ccccc2)oc2cc(O)c(O)c(O)c12 [Baicalein]
remaining activity at 1.25 µM ([1]; Well no.=3087, low concentration screen): 103%
remaining activity at 1.25 µM ([1]; Well no.=3942, low concentration screen): 108%
remaining activity at 3.75 µM ([2]; Well no.=3087, high concentration screen): 101%
remaining activity at 3.75 µM ([2]; Well no.=3942, high concentration screen): 104%

O=C(O)[C@H]1O[C@@H](Oc2cc3oc(-c4ccccc4)cc(=O)c3c(O)c2O)[C@H](O)[C@@H](O)[C@@H]1O [Baicalin]
remaining activity at 1.25 µM ([1]; Well no.=5190, low concentration screen): 101%
remaining activity at 3.75 µM ([2]; Well no.=5190, high concentration screen): 100%

C=C[C@@](C)(/C=C/c1ccc(O)cc1)CCC=C(C)C [Bakuchiol]
remaining activity at 1.25 µM ([1]; Well no.=4001, low concentration screen): 101%
remaining activity at 3.75 µM ([2]; Well no.=3520, high concentration screen): 101%
remaining activity at 3.75 µM ([2]; Well no.=4001, high concentration screen): 97.7%

CNC1CCCN(c2c(F)cc3c(=O)c(C(=O)O)cn(C4CC4)c3c2OC)C1 (centres unmarked) [Balofloxacin]
remaining activity at 1.25 µM ([1]; Well no.=5058, low concentration screen): 95.8%
remaining activity at 3.75 µM ([2]; Well no.=5058, high concentration screen): 97.3%

O=C(O)CCNC(=O)c1ccc(/N=N/c2ccc(O)c(C(=O)O)c2)cc1 [Balsalazide]
remaining activity at 1.25 µM ([1]; Well no.=7362, low concentration screen): 96.6%
remaining activity at 3.75 µM ([2]; Well no.=7362, high concentration screen): 92.1%

CN(C)C(=O)Oc1cc(OC(=O)N(C)C)cc(C(O)CNC(C)(C)C)c1 (centres unmarked) [Bambuterol (hydrochloride)]
remaining activity at 1.25 µM ([1]; Well no.=6617, low concentration screen): 100%
remaining activity at 3.75 µM ([2]; Well no.=6617, high concentration screen): 101%

CN(C)C(=O)Oc1cc(OC(=O)N(C)C)cc(C(O)CNC(C)(C)C)c1 (centres unmarked) [Bambuterol]
remaining activity at 1.25 µM ([1]; Well no.=1770, low concentration screen): 92.4%
remaining activity at 3.75 µM ([2]; Well no.=1770, high concentration screen): 92.8%

COc1ccc(-c2oc3c(CC=C(C)C)c(O)cc(O)c3c(=O)c2O[C@@H]2O[C@@H](C)[C@H](O)[C@@H](O)[C@H]2O)cc1 [Baohuoside I]
remaining activity at 1.25 µM ([1]; Well no.=6684, low concentration screen): 108%
remaining activity at 1.25 µM ([1]; Well no.=7047, low concentration screen): 101%
remaining activity at 3.75 µM ([2]; Well no.=6684, high concentration screen): 102%
remaining activity at 3.75 µM ([2]; Well no.=7047, high concentration screen): 96.4%
remaining activity at 3.75 µM ([2]; Well no.=8129, high concentration screen): 99.8%

COc1cc(NC(=O)CCN2CCC(OC(=O)Nc3ccccc3-c3ccccc3)CC2)c(Cl)cc1CNC[C@H](O)c1ccc(O)c2[nH]c(=O)ccc12 [Batefenterol]
remaining activity at 1.25 µM ([1]; Well no.=7045, low concentration screen): 106%
remaining activity at 3.75 µM ([2]; Well no.=7045, high concentration screen): 109%

COc1cc2c(cc1CC=C(C)C)C(=O)C[C@@H](c1ccc(O)cc1)O2 [Bavachinin A]
remaining activity at 1.25 µM ([1]; Well no.=3243, low concentration screen): 100%
remaining activity at 3.75 µM ([2]; Well no.=3243, high concentration screen): 99%

CC(C)(C)c1ccc(S(=O)(=O)/C=C/C#N)cc1 [Bay 11-7085]
remaining activity at 1.25 µM ([1]; Well no.=127, low concentration screen): 105%
remaining activity at 3.75 µM ([2]; Well no.=127, high concentration screen): 105%

N#Cc1c(Oc2cccc(OS(=O)(=O)CCCC(F)(F)F)c2)cccc1C(F)(F)F [Bay 59-3074]
remaining activity at 1.25 µM ([1]; Well no.=8043, low concentration screen): 96.7%
remaining activity at 3.75 µM ([2]; Well no.=8043, high concentration screen): 96.5%

Cc1c(-c2ccc(O)cc2)n(Cc2ccc(OCCN3CCCCCC3)cc2)c2ccc(O)cc12 [Bazedoxifene HCl]
remaining activity at 1.25 µM ([1]; Well no.=5100, low concentration screen): 105%
remaining activity at 3.75 µM ([2]; Well no.=5100, high concentration screen): 105%

CCC(=O)OCC(=O)[C@@]1(OC(=O)CC)[C@@H](C)C[C@H]2[C@@H]3CCC4=CC(=O)C=C[C@]4(C)[C@@]3(Cl)[C@@H](O)C[C@@]21C [Beclometasone dipropionate]
remaining activity at 1.25 µM ([1]; Well no.=7615, low concentration screen): 101%
remaining activity at 3.75 µM ([2]; Well no.=7615, high concentration screen): 96.1%

C[C@H]1C[C@H]2[C@@H]3CCC4=CC(=O)C=C[C@]4(C)[C@@]3(Cl)[C@@H](O)C[C@]2(C)[C@@]1(O)C(=O)CO [Beclomethasone]
remaining activity at 1.25 µM ([1]; Well no.=356, low concentration screen): 95.3%
remaining activity at 3.75 µM ([2]; Well no.=356, high concentration screen): 100%

O=C(/C=C/c1cccc(S(=O)(=O)Nc2ccccc2)c1)NO [Belinostat (PXD101)]
remaining activity at 1.25 µM ([1]; Well no.=5009, low concentration screen): 98.9%
remaining activity at 3.75 µM ([2]; Well no.=5009, high concentration screen): 91.9%

CCO[C@@H]1OC(=O)C[C@@H]1NC(=O)[C@@H]1CCCN1C(=O)[C@@H](NC(=O)c1ccc(N)c(Cl)c1)C(C)(C)C [Belnacasan]
remaining activity at 1.25 µM ([1]; Well no.=6502, low concentration screen): 98%
remaining activity at 1.25 µM ([1]; Well no.=8460, low concentration screen): 103%
remaining activity at 3.75 µM ([2]; Well no.=6502, high concentration screen): 98.4%
remaining activity at 3.75 µM ([2]; Well no.=8460, high concentration screen): 110%

CCOC(=O)[C@H](CCc1ccccc1)N[C@H]1CCc2ccccc2N(CC(=O)O)C1=O [Benazepril (hydrochloride)]
remaining activity at 1.25 µM ([1]; Well no.=7786, low concentration screen): 104%
remaining activity at 3.75 µM ([2]; Well no.=7786, high concentration screen): 104%

CCOC(=O)[C@H](CCc1ccccc1)N[C@H]1CCc2ccccc2N(CC(=O)O)C1=O [Benazepril HCl]
remaining activity at 1.25 µM ([1]; Well no.=5153, low concentration screen): 97.7%
remaining activity at 3.75 µM ([2]; Well no.=5153, high concentration screen): 101%

COc1cccc(OC)c1OCCNCC1CSc2ccccc2O1 (centres unmarked) [Benoxathian hydrochloride]
remaining activity at 1.25 µM ([1]; Well no.=323, low concentration screen): 99.7%
remaining activity at 3.75 µM ([2]; Well no.=323, high concentration screen): 93.6%

NC(CO)C(=O)NNCc1ccc(O)c(O)c1O (centres unmarked) [Benserazide hydrochloride]
remaining activity at 1.25 µM ([1]; Well no.=367, low concentration screen): 96.9%
remaining activity at 3.75 µM ([2]; Well no.=367, high concentration screen): 96.5%

NC(CO)C(=O)NNCc1ccc(O)c(O)c1O (centres unmarked) [Benserazide]
remaining activity at 1.25 µM ([1]; Well no.=1903, low concentration screen): 97.8%
remaining activity at 3.75 µM ([2]; Well no.=1903, high concentration screen): 97.7%

NC(=O)c1ccccc1 [Benzamide]
remaining activity at 1.25 µM ([1]; Well no.=358, low concentration screen): 96.5%
remaining activity at 3.75 µM ([2]; Well no.=358, high concentration screen): 95.9%

N=C(N)c1ccccc1 [Benzamidine hydrochloride]
remaining activity at 1.25 µM ([1]; Well no.=223, low concentration screen): 99.2%
remaining activity at 3.75 µM ([2]; Well no.=223, high concentration screen): 99%

N/C(=N\C(=O)c1nc(Cl)c(N)nc1N)NCc1ccccc1 [Benzamil hydrochloride]
remaining activity at 1.25 µM ([1]; Well no.=267, low concentration screen): 95.3%
remaining activity at 3.75 µM ([2]; Well no.=267, high concentration screen): 92.2%

N/C(=N\C(=O)c1nc(Cl)c(N)nc1N)NCc1ccccc1 [Benzamil]
remaining activity at 1.25 µM ([1]; Well no.=2050, low concentration screen): 104%
remaining activity at 3.75 µM ([2]; Well no.=2050, high concentration screen): 104%

CCc1oc2ccccc2c1C(=O)c1cc(Br)c(O)c(Br)c1 [Benzbromarone]
remaining activity at 1.25 µM ([1]; Well no.=8442, low concentration screen): 86.8%
remaining activity at 3.75 µM ([2]; Well no.=8442, high concentration screen): 85.1%

NS(=O)(=O)c1ccccc1 [Benzenesulfonamide]
remaining activity at 1.25 µM ([1]; Well no.=8398, low concentration screen): 97.6%
remaining activity at 3.75 µM ([2]; Well no.=8398, high concentration screen): 101%

O=C1CCC(c2ccccc2)(C2CCN(Cc3ccccc3)CC2)C(=O)N1 (centres unmarked) [Benzetimide (hydrochloride)]
remaining activity at 1.25 µM [1]: 99.9%
remaining activity at 3.75 µM [2]: 97.6%

C[C@@]12C[C@@]3(O)O[C@@H](O1)[C@]1(COC(=O)c4ccccc4)[C@H]3C[C@@]12O[C@@H]1O[C@H](COC(=O)c2ccccc2)[C@@H](O)[C@H](O)[C@H]1O [Benzoylpaeoniflorin]
remaining activity at 1.25 µM ([1]; Well no.=6394, low concentration screen): 101%
remaining activity at 3.75 µM ([2]; Well no.=6394, high concentration screen): 98.2%

NS(=O)(=O)c1cc2c(cc1Cl)N=C(CSCc1ccccc1)NS2(=O)=O [Benzthiazide]
remaining activity at 1.25 µM ([1]; Well no.=8586, low concentration screen): 98.4%
remaining activity at 3.75 µM ([2]; Well no.=8586, high concentration screen): 93.6%
